Where two headings read alike, the source gives them in different places.
Columns and labels:
[1] = system: dogfish liver glutamate dehydrogenase; details: concentration that inhibited chicken H4 lactate dehydrogenase by 59%; Everse et al 1971; cited from earlier work
[2] = molecular target: pig heart mitochondrial malate dehydrogenase (Sus scrofa, UniProt P00346); details: concentration that inhibited chicken H4 lactate dehydrogenase by 59%; Everse et al 1971; cited from earlier work
[3] = molecular target: chicken H4 lactate dehydrogenase (Gallus gallus, UniProt P00337); details: concentration not given; Everse et al 1971; cited from earlier work
Sequence of chicken H4 lactate dehydrogenase (P00337 whole entry): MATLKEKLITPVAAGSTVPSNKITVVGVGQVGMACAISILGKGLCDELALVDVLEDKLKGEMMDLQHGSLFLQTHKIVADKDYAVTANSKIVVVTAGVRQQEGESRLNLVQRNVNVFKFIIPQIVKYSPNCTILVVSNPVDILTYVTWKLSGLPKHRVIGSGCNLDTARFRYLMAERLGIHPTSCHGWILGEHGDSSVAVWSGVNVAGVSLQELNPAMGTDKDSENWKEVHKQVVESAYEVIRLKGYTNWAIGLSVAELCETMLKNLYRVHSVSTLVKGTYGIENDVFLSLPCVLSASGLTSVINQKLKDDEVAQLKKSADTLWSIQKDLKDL

[4] = molecular target: T1, beef heart lactate dehydrogenase (Bos taurus, UniProt Q5E9B1); experiment: Inhibition of beef heart lactate dehydrogenase (NADH absorbance at 340 nm); assay type: biochemical, bovine; details: for Relative Activity (%) Beef Heart: 0.24 mM pyruvate, 0.1 mM NADH, pH 7.2, 25° C.
T1 construct: purchased Worthington Biochemical Corporation (Freehold, N.J.); host or cells: beef heart
T1 sequence (Q5E9B1 whole entry): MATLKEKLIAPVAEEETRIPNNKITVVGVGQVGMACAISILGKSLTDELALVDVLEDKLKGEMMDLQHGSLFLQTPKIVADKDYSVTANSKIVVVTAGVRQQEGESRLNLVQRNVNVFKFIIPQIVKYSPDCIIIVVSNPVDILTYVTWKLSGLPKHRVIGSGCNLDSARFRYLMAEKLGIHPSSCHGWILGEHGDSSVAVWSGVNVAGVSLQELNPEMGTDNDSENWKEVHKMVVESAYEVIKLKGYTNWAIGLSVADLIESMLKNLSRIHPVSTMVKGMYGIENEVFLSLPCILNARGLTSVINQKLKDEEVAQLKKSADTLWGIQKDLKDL
Description: Enzymes and enzyme assays. Rabbit muscle glyceraldehyde-3-phosphate dehydrogenase (80 U/mg: ammonium sulfate suspension), rabbit muscle glycerol-3-phosphate dehydrogenase (40 U/mg; ammonium sulfate suspension),beef liver glutamate dehydrogenase (120 U/mg: in 50% glycerol), mitochondrial pig heart malate dehydrogenase (1100 U/mg; in 50% glycerol) and yeast hexokinase (140 U/mg; ammonium sulfate suspension) were purchased from Boehringer Mannheim Corp. (Indianapolis). Beef heart lactate dehydrogenase (280 U/mg) was purchased from Worthington Biochemical Corporation (Freehold, N.J.). Porcine heart L-alanine aminotransferase (130 U/mg), rabbit muscle phosphofructokinase (140 U/mg; ammonium sulfate suspension), bovine heart α-ketoglutarate (8 U/mg) and pyruvate (5 U/mg) dehydrogenase complexes, sodium pyruvate, L-methionine-SR-sulfoximine, DL-vinylglycine, NAD^+, NADH and NAD^+ analogues (3-acetylpyridine, thionicotinamide, and 3-pyridinealdehyde adenine dinucleotides) were purchased from Sigma Chemical Company (St. Louis, Mo.).
(§1) Each of the enzymes was assayed by procedures in which change of absorbance at 340 nm due to NADH was followed essentially as described by Bergmeyer (1974, Methods of Enzymatic Analysis, 2nd Eng. Ed., Verlag Chemie Weinheim Academic Press, N.Y.) with the following exceptions. Phosphofructokinase was assayed according to the method of Lai et al (1984, J. Neurochem., 42:438-446). NAD^+ -linked isocitrate dehydrogenase was assayed as described by Lai and Clark (1976, Biochem. J., 154:423-432). Pyruvate and α-ketoglutarate dehydrogenase complexes were respectively assayed according to the methods of Lai and Sheu (1985, J. Neurochem., 45:1861-1868) and Lai and Cooper (1986) (J. Neurochem, 47:1376-1386).
(§2) The reaction mixture (1 ml) contained 0.24 mM sodium pyruvate, 0.1 mM
(§3) NADH, 100 mM potassium phosphate buffer (pH 7.2) and either purified
(§4) bovine heart lactate dehydrogenase (0.01 U) or rat brain homogenate
(§5) containing ~0.02 U of lactate dehydrogenase activity; 25° C.
(§6) Since APADpyruvate adduct and RAP have a tendency to revert to pyruvate
(§7) they were added to the reaction mixture just prior to addition of enzyme.
(§8) Because the kinetics obtained with tightbinding inhibitors depends on the
(§9) order of addition of substrates and inhibitors the enzyme was always adde
(§10) last. Each value is the average of at least 3 determinations. Each of the […]

[5] = molecular target: yeast alcohol dehydrogenase (Saccharomyces cerevisiae, UniProt P00330); details: concentration that inhibited chicken H4 lactate dehydrogenase by 59%; Everse et al 1971; cited from earlier work
Sequence of yeast alcohol dehydrogenase (P00330 whole entry): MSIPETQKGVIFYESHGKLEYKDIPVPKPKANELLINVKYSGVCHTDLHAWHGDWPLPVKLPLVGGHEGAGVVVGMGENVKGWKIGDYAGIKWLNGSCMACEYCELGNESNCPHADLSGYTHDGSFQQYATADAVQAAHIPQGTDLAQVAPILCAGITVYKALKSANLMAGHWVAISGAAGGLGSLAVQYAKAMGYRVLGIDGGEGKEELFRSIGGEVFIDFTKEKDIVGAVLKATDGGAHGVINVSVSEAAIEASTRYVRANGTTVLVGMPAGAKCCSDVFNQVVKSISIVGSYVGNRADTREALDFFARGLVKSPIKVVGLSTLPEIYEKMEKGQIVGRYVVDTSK

[6] = cited from earlier work; for stability in solution: Burgner and Ray 1984
[7] = molecular target: horse liver alcohol dehydrogenase (Equus caballus, UniProt P00327); details: concentration that inhibited chicken H4 lactate dehydrogenase by 59%; Everse et al 1971; cited from earlier work
Sequence of horse liver alcohol dehydrogenase (P00327 whole entry): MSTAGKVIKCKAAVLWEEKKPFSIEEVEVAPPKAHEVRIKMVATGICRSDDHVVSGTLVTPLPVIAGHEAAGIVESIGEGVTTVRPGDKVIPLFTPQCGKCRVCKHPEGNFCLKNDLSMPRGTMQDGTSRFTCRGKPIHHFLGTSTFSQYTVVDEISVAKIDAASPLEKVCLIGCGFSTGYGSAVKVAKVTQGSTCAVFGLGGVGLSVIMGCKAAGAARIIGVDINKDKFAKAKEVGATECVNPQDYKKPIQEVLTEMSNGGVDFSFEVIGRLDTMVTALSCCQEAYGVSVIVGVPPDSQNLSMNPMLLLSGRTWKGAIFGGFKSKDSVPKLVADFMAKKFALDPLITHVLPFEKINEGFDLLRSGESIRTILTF

[8] = system: rat brain lactate dehydrogenase; experiment: Inhibition of rat brain lactate dehydrogenase (rat brain homogenate); assay type: biochemical; details: rat brain homogenate, 0.24 mM pyruvate, 0.1 mM NADH, pH 7.2, 25° C.
Experimental: as §1, §2, §3, §4, §5, §6, §7, §8, §9, §10

lactate dehydrogenase = experiment: Reactive α-keto and α-hydroxy acids as inhibitors of lactate dehydrogenase; assay type: biochemical
Experimental: as §1

[9] = molecular target: lactate dehydrogenase (dogfish enzyme) (Squalus acanthias, UniProt P00341); details: Burgner and Ray 1984; cited from earlier work
Sequence of lactate dehydrogenase (dogfish enzyme) (P00341 whole entry): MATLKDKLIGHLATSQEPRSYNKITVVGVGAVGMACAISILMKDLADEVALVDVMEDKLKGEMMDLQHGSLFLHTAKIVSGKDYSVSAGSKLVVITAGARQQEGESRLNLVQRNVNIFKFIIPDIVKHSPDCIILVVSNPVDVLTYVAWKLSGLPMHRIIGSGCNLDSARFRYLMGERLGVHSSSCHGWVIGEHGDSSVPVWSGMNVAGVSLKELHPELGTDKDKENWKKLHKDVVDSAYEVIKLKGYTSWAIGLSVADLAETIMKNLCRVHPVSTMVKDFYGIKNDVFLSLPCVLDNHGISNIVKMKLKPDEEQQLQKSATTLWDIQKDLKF

Sequence of pig heart mitochondrial malate dehydrogenase (P00346 25-338): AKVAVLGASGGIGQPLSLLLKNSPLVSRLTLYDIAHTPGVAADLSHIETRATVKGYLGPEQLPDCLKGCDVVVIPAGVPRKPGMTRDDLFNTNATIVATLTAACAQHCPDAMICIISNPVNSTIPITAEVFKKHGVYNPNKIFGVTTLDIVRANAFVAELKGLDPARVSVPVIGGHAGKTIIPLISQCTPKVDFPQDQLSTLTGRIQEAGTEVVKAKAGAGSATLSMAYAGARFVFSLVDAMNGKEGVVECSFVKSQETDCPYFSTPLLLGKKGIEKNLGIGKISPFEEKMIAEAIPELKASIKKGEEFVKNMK

NC(=O)C1=CN([C@@H]2O[C@H](COP(=O)(O)OP(=O)(O)OC[C@H]3O[C@@H](n4cnc5c(N)ncnc54)[C@H](O)[C@@H]3O)[C@@H](O)[C@H]2O)C=CC1CC(=O)C(=O)O (stereo partly drawn) [NAD-pyruvate adduct]
effect on dogfish liver glutamate dehydrogenase [1]: little effect | effect on pig heart mitochondrial malate dehydrogenase [2]: little effect | inhibition of chicken H4 lactate dehydrogenase [3]: 59% | Relative Activity (%) Beef Heart ([4]; additive 34 μM): 90% | Relative Activity (%) Beef Heart ([4]; additive 68 μM): 62% | Relative Activity (%) Beef Heart ([4]; additive 136 μM): 38% | Ki ([4]; calculated from Table 1 data with Km for NADH 2.5 μM, standard equation for a competitive inhibitor, read-out: Ki): 2600 nM | effect on yeast alcohol dehydrogenase [5]: little effect | stability (loss of absorbance at 340 nm) ([6]; Everse et al 1971): relatively unstable and easily oxidized | effect on horse liver alcohol dehydrogenase [7]: little effect | Relative Activity (%) Rat Brain ([8]; additive 34 μM): 48%

Vinylglycolate
action on lactate dehydrogenase (lactate dehydrogenase): substrates, not inhibitors

CC=CC(=O)C(=O)O [2-oxo-3-pentenoic acid]
action on lactate dehydrogenase (lactate dehydrogenase): substrates, not inhibitors

NC(=S)C1=CN([C@@H]2O[C@H](COP(=O)(O)OP(=O)(O)OC[C@H]3O[C@@H](n4cnc5c(N)ncnc54)[C@H](O)[C@@H]3O)[C@@H](O)[C@H]2O)C=CC1CC(=O)C(=O)O (stereo partly drawn) [Thio analogue]
Relative Activity (%) Beef Heart ([4]; additive 0.7 μM): 38% | Relative Activity (%) Beef Heart ([4]; additive 1.4 μM): 17% | Relative Activity (%) Rat Brain ([8]; additive 1.4 μM): 33%

CC(=O)C1=CN([C@@H]2O[C@H](COP(=O)(O)OP(=O)(O)OC[C@H]3O[C@@H](n4cnc5c(N)ncnc54)[C@H](O)[C@@H]3O)[C@@H](O)[C@H]2O)C=CC1CC(=O)C(=O)O (stereo partly drawn) [Acetyl analogue, reference compound]
Ki [9]: 0.1 nM | Relative Activity (%) Beef Heart ([4]; additive 0.08 μM): 90% | Relative Activity (%) Beef Heart ([4]; additive 0.42 μM): 60% | Relative Activity (%) Beef Heart ([4]; additive 0.84 μM): 21% | stability in solution ([6]; pH 7.0): reverts to free pyruvate and APAD | stability in solution ([6]; pH 11.0): relatively stable | Relative Activity (%) Rat Brain ([8]; additive 0.42 μM): 61% | Relative Activity (%) Rat Brain ([8]; additive 0.84 μM): 30%

Source: patent US4950602A, “Inhibition of lactate production by pyruvate adducts” (Cornell Research Foundation, Inc., priority 1987, dated 1990)
